Experimental data published in paper PMC9890698 (BMC Biology, 2023).
“And” between values parts separate entries of the source, which are not always exact repeats. Equal entries are not always repeated.

Columns and labels:
[1] = system: washed murine platelets (P2Y1-R/Gαq signaling); test: IP1 accumulation assay (HTRF) in washed murine platelets; format: cell-based, mouse; settings: MRS2179 10 μM, 2 h
Procedure: As performed in HEK293T cells, we thus quantified intracellular IP1 levels to monitor Gαq protein-dependent signaling pathways.
Platelet-rich plasma (PRP) was obtained by mixing blood with 1 volume of modified Hepes Tyrode’s buffer (137 mM NaCl, 2 mM KCl, 12 mM NaHCO3, 0.3 mM NaH2PO4, 1 mM MgCl2, 2 mM CaCl2, 5.5 mM glucose, 5 mM HEPES, and 0.35% (w/v) BSA, pH 6.7) followed by a centrifugation at 150 g for 2 min at 37 °C. Then, platelets were pelleted by centrifugation at 1000 g for 4 min, resuspended in modified Hepes Tyrode’s buffer (pH 7.4), adjusted to 3.10^8 platelets/mL in the presence of 0.02 U/mL of apyrase and 10 μM indomethacin and rested for 45 minutes at 37°C before platelet stimulation. PGI2 (0.5 μM) was added before centrifugation steps to avoid platelet activation.
(§1) Quantification of intracellular IP1 was performed using the HTRF (Homogeneous Time Resolved Fluorescence) IP1 competitive immunoassay (IP-One Tb kit. Cisbio. France) according to the manufacturer’s instructions. Briefly, 20,000 HEK293T/17 cells or 3.10^6 platelets were distributed in a 384-well white microplate (Greiner) and incubated with the indicated molecules for 30 min or 2 h at 37 °C in the presence of 50 mM of LiCl to prevent IP1 degradation. After addition of d2-labeled IP1 (acceptor) and anti-IP1-Cryptate (donor) for 1 h, the specific FRET signals were calculated by the fluorescence ratio of the acceptor and donor emission signal (665/620 nm) collected using a modified Infinite F500 (Tecan Group Ltd). Conversion of the HTRF ratio of each sample into IP1 concentrations was performed on the basis of a standard curve to determine the linear dynamic range of the assay.

HEK293T cells (pcDNA3.1) = test: IP1 accumulation assay (HTRF) in control HEK293T cells (pcDNA3.1); format: cell-based, Human; settings: pcDNA3.1, MRS2179 10 μM, 2 h
Description: Since Gαq protein activation is known to induce PLC activation leading to IP3 and subsequent cytosolic calcium release, we analyzed the constitutive Gαq-dependent P2Y1-R signaling by quantifying intracellular inositol monophosphate (IP1) using a monoclonal antibody-based competitive ELISA. IP1 is a downstream metabolite of IP3 that accumulates in cells following Gαq protein-coupled receptor activation, making it an ideal readout for Gαq protein-dependent signaling pathways.
as §1

Human P2Y1-R [2] = target: T1, Human P2Y1-R (Homo sapiens, UniProt P47900); test: β-arrestin 2 recruitment BRET1 assay (β-arrestin 2-RLuc / P2Y1-R-Venus) in HEK293T cells; format: cell-based; settings: for MRS2179-modulated BRET: Figure 3g; for MRS2179-modulated BRET / b-arrestin 2 signaling, Ligand-modulated BRET (% of maximum MRS2179 mean value) / Ligand-modulated BRET: individual replicates; for b-arrestin 2 signaling, Ligand-modulated BRET (% of maximum MRS2179 mean value): Figure 4b; for Ligand-modulated BRET: Figure 3h, ligand 10 µM
T1 construct: expressed in transfected cells; host or cells: HEK293T/17
T1 sequence (P47900 whole entry): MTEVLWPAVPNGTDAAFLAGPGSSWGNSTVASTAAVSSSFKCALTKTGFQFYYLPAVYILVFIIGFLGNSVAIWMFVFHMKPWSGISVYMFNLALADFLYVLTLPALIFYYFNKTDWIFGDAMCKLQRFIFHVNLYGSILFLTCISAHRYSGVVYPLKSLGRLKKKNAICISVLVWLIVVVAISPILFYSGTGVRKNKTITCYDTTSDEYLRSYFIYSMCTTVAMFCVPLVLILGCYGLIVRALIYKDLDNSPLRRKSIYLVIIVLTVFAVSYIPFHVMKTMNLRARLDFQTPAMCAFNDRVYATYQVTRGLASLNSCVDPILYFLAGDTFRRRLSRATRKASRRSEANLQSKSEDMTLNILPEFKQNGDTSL
Description: We assessed β-arrestin 2 recruitment to the receptor using BRET^1 assay. The assay measures the interaction between β-arrestin 2 fused to the Renilla reniformis luciferase (RLuc) energy donor and the receptor fused to fluorescent Venus energy acceptor (Fig. 3a). The recruitment of cytosolic β-arrestin 2 to the receptor at the plasma membrane in the presence of an agonist will promote a significant increase of the BRET signal compared to the basal state, reflecting the close proximity between the β-arrestin 2 energy donor and the receptor energy acceptor [22].
Human P2Y1-R (NCBI Reference Sequence: NM_002563.2) and P2Y12-R (NCBI Reference Sequence: NM_022788.3) were fused to double Myc epitope and rat AT1-R (NCBI Reference Sequence: NM_030985.4) to HA tag in N-terminus extracellular region. Alternatively, receptors were also fused to Venus tag in C-terminus intracellular region. Plasmids encoding Gαq-RLuc8, GFP2-Gγ2 and untagged Gβ1 were previously described. ADP was purchased from Sigma-Aldrich/Merck (Darmstadt, Germany). […] The Gq inhibitor (FR900359) was kindly supplied by Evi Kostenis (University of Bonn. Germany).
G protein activation and β-arrestin 2 recruitment were performed as previously described. Briefly, vectors encoding receptors, Gαq-RLuc8, GFP2-Gγ2, Gβ1, or β-arrestin 2 were transiently cotransfected into HEK293T/17 cells as indicated in the figure legends. Forty-eight hours after transfection, cells were washed and resuspended in PBS containing 0.1% (w/v) glucose at room temperature and then distributed (80 μg proteins/well) in a 96-well microplate (PerkinElmer). For G protein activation experiments (BRET^2), cells were incubated in the absence (basal BRET signal) or in the presence of ligand for 1 minute. BRET signal between RLuc8 and GFP2 was measured after addition of the luciferase substrate coelenterazine 400a (5 μM). For β-arrestin 2 recruitment (BRET^1), cells were stimulated with ligands for 5 or 15 min. BRET signal was recorded after incubation with coelenterazine h (5 μM) for 8 min. For kinetics studies, BRET signal between RLuc and Venus was recorded at 20-s intervals at basal state for the 2 first minutes and then for 5 min after ligand injection. For saturation curves (BRET^1), the expression level of Venus- or RLuc-tagged protein was determined by direct measurement of total fluorescence and luminescence respectively. Total fluorescence was first measured with an excitation filter at 485 nm and an emission filter at 520 nm. Then, the same sample was incubated for 8 minutes with 5 μM coelenterazine h and the total luminescence was measured. BRET^2 and BRET^1 readings were collected using a modified Infinite F500 (Tecan Group Ltd). The BRET^2 signal was calculated by the ratio of emission of GFP2 (510–540 nm) to RLuc8 (370–450 nm) and the BRET^1 signal by the ratio of emission of Venus (520–570 nm) to RLuc (370–480 nm). Sometimes, results are expressed as the Net BRET computed by deducting the BRET background signal (obtained in the presence of the energy donor alone) from the BRET signal (acquired from cells expressing both the energy donor and acceptor).

Human P2Y12-R = target: T2, Human P2Y12-R (Homo sapiens, UniProt Q9H244); test: IP1 accumulation assay (HTRF) in HEK293T cells expressing P2Y12-R; format: cell-based; settings: MRS2179 10 μM, 2 h
T2 construct: expressed in transfected cells; host or cells: HEK293T/17
T2 sequence (Q9H244 whole entry): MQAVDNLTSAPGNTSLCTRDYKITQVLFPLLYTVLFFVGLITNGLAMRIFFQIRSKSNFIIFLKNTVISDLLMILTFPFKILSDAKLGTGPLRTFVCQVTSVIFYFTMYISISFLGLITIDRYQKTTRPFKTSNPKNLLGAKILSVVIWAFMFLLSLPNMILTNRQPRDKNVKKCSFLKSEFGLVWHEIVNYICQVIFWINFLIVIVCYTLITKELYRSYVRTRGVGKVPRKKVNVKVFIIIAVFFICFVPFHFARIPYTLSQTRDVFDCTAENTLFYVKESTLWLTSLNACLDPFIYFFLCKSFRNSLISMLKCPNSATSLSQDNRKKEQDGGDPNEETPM

Human P2Y1-R [3] = target: T1, Human P2Y1-R; test: IP1 accumulation assay (HTRF) in HEK293T cells expressing P2Y1-R; format: cell-based; settings: MRS2179 10 μM, 2 h
[4] = Fig. 3g, inverse agonism on β-arrestin 2 recruitment, 15 min
[5] = β-Arrestin 2 signaling, Fig. 4b, 15 min

SMILES: CNc1ncnc2c1ncn2[C@H]1C[C@H](OP(=O)(O)O)[C@@H](COP(=O)(O)O)O1 [MRS2179]
- IP1 concentration (% matched basal values) ([1]; murine platelets, individual mice): 42.6495 % matched basal values and 45.455 % matched basal values and 38.903 % matched basal values and 51.5072 % matched basal values and 54.7749 % matched basal values and 40.3524 % matched basal values and 43.9466 % matched basal values and 64.234 % matched basal values and 61.4369 % matched basal values and 43.9485 % matched basal values and 57.6391 % matched basal values and 59.347 % matched basal values and 42.2435 % matched basal values
- Effect on IP1 levels ([1]; washed murine platelets, ADP 100 μM, Gq inhibitor 100 nM, apyrase 0.02 U/mL, result in words): decreased IP1 levels
- IP1 concentration (HEK293T cells (pcDNA3.1)): 88.9223 nM and 110.299 nM and 105.967 nM and 93.0408 nM and 138.708 nM
- Effect on β-arrestin 2 recruitment at decreased (low) P2Y1-R expression (Human P2Y1-R [2]; 10 μM, 15 min, decreasing amounts of P2Y1-R-Venus vector, result in words): loss of the inverse agonist efficacy
- Maximal efficacy (Emax), MRS2179-modulated BRET (Human P2Y1-R [2]; Fig. 3g, 15 min stimulation, difference in BRET signal with and without ligand): -0.1192 ± 0.007029
- EC50 (Human P2Y1-R [2]; [4]): 4.56 µM
- pEC50 ± s.e.m. (Human P2Y1-R [2]; [4]): 5.341 ± 0.1565
- MRS2179-modulated BRET (Human P2Y1-R [2]; [MRS2179] 1.00E-04 M): -0.1343 and -0.1251 and -0.1075 and -0.1104 and -0.1004 and -0.1271
- MRS2179-modulated BRET (Human P2Y1-R [2]; [MRS2179] 1.00E-05 M): -0.08399 and -0.08788 and -0.08039 and -0.09033 and -0.07645 and -0.09139
- MRS2179-modulated BRET (Human P2Y1-R [2]; [MRS2179] 1.00E-06 M): -0.02625 and -0.04054 and -0.04836 and -0.05476 and -0.05132 and -0.07031
- MRS2179-modulated BRET (Human P2Y1-R [2]; [MRS2179] 1.00E-07 M): -0.0171 and -0.02456 and -0.02615 and -0.04428 and -0.0209 and -0.07223
- MRS2179-modulated BRET (Human P2Y1-R [2]; [MRS2179] 1.00E-08 M): -0.003323 and -0.0198 and -0.01307 and -0.01788 and -0.04276 and -0.0269
- MRS2179-modulated BRET (Human P2Y1-R [2]; [MRS2179] 1.00E-09 M): -0.00593 and -0.03381 and -0.01728 and -0.01928 and -0.03943 and -0.05623
- MRS2179-modulated BRET (Human P2Y1-R [2]; [MRS2179] 1.00E-10 M): -0.003915 and -0.01627 and -0.01217 and -0.01765 and -0.03594 and -0.03393
- b-arrestin 2 signaling, Ligand-modulated BRET (% of maximum MRS2179 mean value) (Human P2Y1-R [2]; [Ligand] 1.00E-04 M): -103.593 % of maximum MRS2179 mean value and -98.5011 % of maximum MRS2179 mean value and -96.2574 % of maximum MRS2179 mean value and -88.0215 % of maximum MRS2179 mean value and -113.627 % of maximum MRS2179 mean value
- b-arrestin 2 signaling, Ligand-modulated BRET (% of maximum MRS2179 mean value) (Human P2Y1-R [2]; [Ligand] 1.00E-05 M): -60.9526 % of maximum MRS2179 mean value and -65.9951 % of maximum MRS2179 mean value and -71.6134 % of maximum MRS2179 mean value and -73.8216 % of maximum MRS2179 mean value and -88.9449 % of maximum MRS2179 mean value
- b-arrestin 2 signaling, Ligand-modulated BRET (% of maximum MRS2179 mean value) (Human P2Y1-R [2]; [Ligand] 1.00E-06 M): -20.802 % of maximum MRS2179 mean value and -20.2455 % of maximum MRS2179 mean value and -36.1127 % of maximum MRS2179 mean value and -36.3804 % of maximum MRS2179 mean value and -49.6506 % of maximum MRS2179 mean value
- b-arrestin 2 signaling, Ligand-modulated BRET (% of maximum MRS2179 mean value) (Human P2Y1-R [2]; [Ligand] 1.00E-07 M): -19.7613 % of maximum MRS2179 mean value and -27.0869 % of maximum MRS2179 mean value and -32.4514 % of maximum MRS2179 mean value and -43.962 % of maximum MRS2179 mean value and -16.0925 % of maximum MRS2179 mean value
- b-arrestin 2 signaling, Ligand-modulated BRET (% of maximum MRS2179 mean value) (Human P2Y1-R [2]; [Ligand] 1.00E-08 M): -3.302 % of maximum MRS2179 mean value and 12.7459 % of maximum MRS2179 mean value and -20.5003 % of maximum MRS2179 mean value and -35.6867 % of maximum MRS2179 mean value and -12.0698 % of maximum MRS2179 mean value
- b-arrestin 2 signaling, Ligand-modulated BRET (% of maximum MRS2179 mean value) (Human P2Y1-R [2]; [Ligand] 1.00E-09 M): -20.2543 % of maximum MRS2179 mean value and -2.0253 % of maximum MRS2179 mean value and -34.1131 % of maximum MRS2179 mean value and -19.5954 % of maximum MRS2179 mean value and -10.4994 % of maximum MRS2179 mean value
- b-arrestin 2 signaling, Ligand-modulated BRET (% of maximum MRS2179 mean value) (Human P2Y1-R [2]; [Ligand] 1.00E-10 M): -0.05365 % of maximum MRS2179 mean value and -19.3587 % of maximum MRS2179 mean value and -11.2009 % of maximum MRS2179 mean value and -4.28 % of maximum MRS2179 mean value and -21.5173 % of maximum MRS2179 mean value
- Ligand-modulated BRET (Human P2Y1-R [2]; 0.1µg P2Y1-R plasmid): -0.007776 and -0.009026 and 0.006633 and -0.01036 and -0.001083
- Ligand-modulated BRET (Human P2Y1-R [2]; 1µg P2Y1-R plasmid): -0.04239 and -0.06101 and -0.06001 and -0.03815 and -0.06277
- Ligand-modulated BRET (Human P2Y1-R [2]; 4µg P2Y1-R plasmid): -0.06559 and -0.09192 and -0.04789 and -0.08727 and -0.06156
- Effect on β-arrestin 2 recruitment / BRET signal between P2Y1-R-Venus and β-arrestin 2-RLuc (Human P2Y1-R [2]; HEK293T cells, high P2Y1-R expression, result in words): significantly decreased the BRET signal
- EC50 (Human P2Y1-R [2]; [5]): 5.05 µM
- pEC50 ± s.e.m. (Human P2Y1-R [2]; [5]): 5.296 ± 0.153
- IP1 concentration (Human P2Y12-R): 90.2229 nM and 91.7585 nM and 129.706 nM and 87.0301 nM and 114.326 nM
- Effect on IP1 production (Human P2Y1-R [3]; ADP 100 μM, Gq inhibitor 100 nM, result in words): strongly inhibited
- IP1 concentration (Human P2Y1-R [3]; P2Y1-R): 323.411 nM and 417.936 nM and 377.702 nM and 245.513 nM and 385.824 nM
